System: T1, A. niger lipase
T1 construct: commercial preparation, Fluka Analytical
Assay: fluorescence, 4-mU release
Assay type: biochemical, Aspergillus niger
Conditions: 0.1 M phosphate pH 7, 30 °C, 5% DMSO
Source text: fluorescence, 4-mU release on A. niger lipase

| Structure (SMILES) | Km [µM] |
| --- | --- |
| COC(=O)c1ccc(C(=O)Oc2ccc3c(C)cc(=O)oc3c2)cc1 [A, Methyl (4-Methyl-2-oxo-2H-chromen-7-yl) Terephthalate] | 5.7 ± 0.5 |
| CCOCCOC(=O)c1ccc(C(=O)Oc2ccc3c(C)cc(=O)oc3c2)cc1 [B, 2-Ethoxyethyl (4-Methyl-2-oxo-2H-chromen-7-yl) Terephthalate] | 1 ± 0.1 |
| COC(=O)c1ccc(C(=O)OCCOC(=O)c2ccc(C(=O)Oc3ccc4c(C)cc(=O)oc4c3)cc2)cc1 [C, 2-((4-(Methoxycarbonyl)benzoyl)oxy)ethyl (4-Methyl-2-oxo-2H-chromen-7-yl) Terephthalate] | 0.6 ± 0.1 |

— article PMC11187625, “New Labeled PET Analogues Enable the Functional Screening and Characterization of PET-Degrading Enzymes” (ACS Sustainable Chemistry & Engineering, 2024)
